# pIC50: −log10 of the molar value.
# Tested on: KRAS patient-derived spheroids with HUVEC/MSC, viability
# Test: Anticancer human tumor 941728-121-R-J1-PDC patient-derived lung adenocarcinoma cell line growth inhibition [KRAS2]
# Conditions: for pIC50: curve of first compound; for viability, T/C: stronger effect = lower value
# Summary of the method: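 Combination screen of spheroid viability in tumor-cell co-cultures with endothelial (HUVEC) and mesenchymal stem cell stroma. Each agent was tested in half-log dilutions, topping at clinical Cmax or at 10 microM without a known Cmax.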
# [1] = second compound 0.1 µM, first compound 0.0316 µM
# [2] = second compound 0.1 µM, first compound 0.1 µM
# [3] = second compound 0.1 µM, first compound 0.316 µM
# [4] = second compound 0.1 µM, first compound 1 µM
# [5] = second compound 0.1 µM, first compound 3.16 µM
# [6] = second compound 0.1 µM, first compound 10 µM
# [7] = second compound 0.316 µM, first compound 0.0316 µM
# [8] = second compound 0.316 µM, first compound 0.1 µM
# [9] = second compound 0.316 µM, first compound 0.316 µM
# [10] = second compound 0.316 µM, first compound 1 µM
# [11] = second compound 0.316 µM, first compound 3.16 µM
# [12] = second compound 0.316 µM, first compound 10 µM
# [13] = second compound 1 µM, first compound 0.0316 µM
# [14] = second compound 1 µM, first compound 0.1 µM
# [15] = second compound 1 µM, first compound 0.316 µM
# [16] = second compound 1 µM, first compound 1 µM
# [17] = second compound 1 µM, first compound 3.16 µM
# [18] = second compound 1 µM, first compound 10 µM
# [19] = second compound 3.16 µM, first compound 0.0316 µM
# [20] = second compound 3.16 µM, first compound 0.1 µM
# [21] = second compound 3.16 µM, first compound 0.316 µM
# [22] = second compound 3.16 µM, first compound 1 µM
# [23] = second compound 3.16 µM, first compound 3.16 µM
# [24] = second compound 3.16 µM, first compound 10 µM
# [25] = second compound 10 µM, first compound 0.0316 µM
# [26] = second compound 10 µM, first compound 0.1 µM
# [27] = second compound 10 µM, first compound 0.316 µM
# [28] = second compound 10 µM, first compound 1 µM
# [29] = second compound 10 µM, first compound 3.16 µM
# [30] = second compound 10 µM, first compound 10 µM
# 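Further: spheroids exposed to agents for seven days before readout.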
SMILES,pIC50 (second compound 0.1 µM),pIC50 (second compound 0.316 µM),pIC50 (second compound 1 µM),pIC50 (second compound 3.16 µM),pIC50 (second compound 10 µM),"viability, T/C [1]","viability, T/C [2]","viability, T/C [3]","viability, T/C [4]","viability, T/C [5]","viability, T/C [6]","viability, T/C [7]","viability, T/C [8]","viability, T/C [9]","viability, T/C [13]","viability, T/C [14]","viability, T/C [19]","viability, T/C [20]","viability, T/C [25]","viability, T/C [26]",also measured
COc1cc(Nc2ncc3c(n2)-c2ccc(Cl)cc2C(c2c(F)cccc2OC)=NC3)ccc1C(=O)O + CC1OCC2(CCN(c3cnc(Sc4ccnc(N)c4Cl)c(N)n3)CC2)C1N,6.86,> 7.50,> 7.50,> 7.50,> 7.50,53.1%,47.6%,48.5%,48.5%,50.3%,41.6%,42.3%,41.9%,40.2%,29.8%,33.4%,23.7%,25.4%,16%,15.4%,"viability, T/C [10]: 39.2%; viability, T/C [11]: 36.6%; viability, T/C [12]: 35.3%; viability, T/C [15]: 36.6%; viability, T/C [16]: 34.6%; viability, T/C [17]: 28%; viability, T/C [18]: 23.9%; viability, T/C [21]: 26.9%; viability, T/C [22]: 26.6%; viability, T/C [23]: 13%; viability, T/C [24]: 14.5%; viability, T/C [27]: 13.4%; viability, T/C [28]: 13.6%; viability, T/C [29]: 12.4%; viability, T/C [30]: 9.18%"
COc1cc2nccc(Oc3ccc(NC(=O)C4(C(=O)Nc5ccc(F)cc5)CC4)cc3)c2cc1OC + CC1OCC2(CCN(c3cnc(Sc4ccnc(N)c4Cl)c(N)n3)CC2)C1N,> 7.50,> 7.50,> 7.50,> 7.50,> 7.50,48.9%,40%,31.5%,29.4%,34.2%,26.9%,28.8%,26.2%,29%,25.3%,25.9%,25.3%,20.1%,20.7%,14.8%,"viability, T/C [10]: 27.8%; viability, T/C [11]: 14.6%; viability, T/C [12]: 16.6%; viability, T/C [15]: 24.1%; viability, T/C [16]: 15.5%; viability, T/C [17]: 8.65%; viability, T/C [18]: 7.11%; viability, T/C [21]: 11.7%; viability, T/C [22]: 12%; viability, T/C [23]: 7.91%; viability, T/C [24]: 4.69%; viability, T/C [27]: 12.2%; viability, T/C [28]: 8.99%; viability, T/C [29]: 4.63%; viability, T/C [30]: 4.36%"
Cn1ncnc1[C@H]1c2n[nH]c(=O)c3cc(F)cc(c23)N[C@@H]1c1ccc(F)cc1 + CC1OCC2(CCN(c3cnc(Sc4ccnc(N)c4Cl)c(N)n3)CC2)C1N,9.48,> 9.50,> 9.50,> 9.50,> 9.50,44.2%,46.5%,,,,,28.1%,28.1%,,19.2%,26.4%,14.4%,19.3%,18.3%,14.7%,"viability, T/C (second compound 0.1 µM, first compound 0.000316 µM): 49.5%; viability, T/C (second compound 0.1 µM, first compound 0.001 µM): 50%; viability, T/C (second compound 0.1 µM, first compound 0.00316 µM): 43.2%; viability, T/C (second compound 0.1 µM, first compound 0.01 µM): 44.7%; viability, T/C (second compound 0.316 µM, first compound 0.000316 µM): 37.7%; viability, T/C (second compound 0.316 µM, first compound 0.001 µM): 28.5%; viability, T/C (second compound 0.316 µM, first compound 0.00316 µM): 26.1%; viability, T/C (second compound 0.316 µM, first compound 0.01 µM): 32.7%; viability, T/C (second compound 1 µM, first compound 0.000316 µM): 28.7%; viability, T/C (second compound 1 µM, first compound 0.001 µM): 25.9%; viability, T/C (second compound 1 µM, first compound 0.00316 µM): 22.2%; viability, T/C (second compound 1 µM, first compound 0.01 µM): 20.6%; viability, T/C (second compound 3.16 µM, first compound 0.000316 µM): 26.6%; viability, T/C (second compound 3.16 µM, first compound 0.001 µM): 24.8%; viability, T/C (second compound 3.16 µM, first compound 0.00316 µM): 25.3%; viability, T/C (second compound 3.16 µM, first compound 0.01 µM): 20%; viability, T/C (second compound 10 µM, first compound 0.000316 µM): 23.8%; viability, T/C (second compound 10 µM, first compound 0.001 µM): 21.5%; viability, T/C (second compound 10 µM, first compound 0.00316 µM): 19.9%; viability, T/C (second compound 10 µM, first compound 0.01 µM): 18.9%"

# Source: PubChem BioAssay AID1963862 (Molecular Pharmacology Branch, DTP, NCI, 2024)
